Experimental data taken from patent US12564595B2, “Prophylactic and therapeutic pharmaceutical agent for HIV infectious diseases characterized by comprising combination of integrase inhibitor and anti-HIV agent” (Shionogi & Co., Ltd., priority 2019, dated 2026).

How the values were obtained:
[1] = Test Example 8: metabolic stability test; assay type: in vitro ADME, human
Procedure, shortened: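 Pooled human liver microsomes (0.5 mg protein/mL, Tris-HCl pH 7.4) incubated with compound and 1 mmol/L NADPH for 0 or 30 min at 37° C. After methanol/acetonitrile quench, remaining parent was quantified by LC/MS/MS or SPE/MS and expressed as % of the 0 min amount.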

[2] = system: HIV mutant strain 2 (E92Q/E138T/G140S/Q148H); assay: Test Example 2: resistance evaluation test (HeLa-CD4 reporter), mutant strain 2; assay type: cell-based; details: FC=EC50 of mutant strain/EC50 of wild strain; HeLa-CD4 cells
Procedure, shortened: (§1)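 HeLa-CD4 reporter cells were infected with wild-type or mutant HIV in the presence of serially diluted compound and cultured 3 days. Cell lysates were read by chemiluminescent reporter assay after about 1 h at room temperature. Fold change was calculated as mutant EC50 divided by wild-type EC50.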

HIV [3] = assay: microbe, parasite or virus in culture; assay type: cell-based; details: Human immunodeficiency virus 1, MT4, 96 h, read-out: EC50 (50% HIV inhibition concentration), MT-4 cells, HIV, cultured four days, MTT; compounds of formula (I) of (A)
Description: A serial dilution series of test samples was prepared in 96-well microplates (50 μL/well).
100 μL/well in each case were dispensed onto plates having test samples of 2.5×10^5/mL MT-4 cell suspension, and HIV virus solution was then dispensed thereto in the amount of 50 μL/well. Mixing was performed using a plate mixer and culturing was performed for four days in a CO2 incubator. MTT (3-(4,5-dimethylthiazol-2-yl)-2,5-diphenyltetrazolium bromide) liquid was dispensed into each well in the amount of 30 μL in each case. The reaction was conducted for 1 h in a CO2 incubator. 150 μL of supernatant were removed from each well, taking care not to aspirate any cells. 150 μL of cell solution were added, and thorough mixing was performed with a plate mixer until all the cells had been dissolved. The optical absorbance of the mixed plates was measured at two wavelengths: 560 nm/690 nm, with a microplate reader.

HIV [4] = assay: Test Example 3: test for confirmation of combined use effect; assay type: cell-based; set-up: key to D value (dosewise additivity value): <-0.1 synergy, -0.1 to 0.1 additive, >0.1 antagonism
From the text: The two compounds in respect of which the effect of combined use was desired to be examined were mixed in various ratios, and the anti-HIV activity (50% HIV inhibiting concentration) for each combination was found by the method of test example 1. […] A brief description of the method of calculating the D value is given below.
The D value that is found by evaluating the anti-HIV activity of respective combinations of M concentrations of compound X1 and N concentrations of compound X2 is calculated by the following mathematical expression 1.
The effect of combined use was evaluated in terms of the D value in accordance with the following criteria • −0.5 to −0.2: strong synergetic effect • −0.2 to −0.1: weak synergetic effect • […]: additive synergetic effect • 0.1 to 0.2: weak antagonism • 0.2 to 0.5: strong antagonism

[5] = system: HIV mutant strain 1 (E138K/G140S/Q148H/N155H); assay: Test Example 2: resistance evaluation test (HeLa-CD4 reporter), mutant strain 1; assay type: cell-based; details: FC=EC50 of mutant strain/EC50 of wild strain; HeLa-CD4 cells
Procedure, shortened: as §1

[6] = biological target: T1, voltage-gated sodium channel (Nav 1.5 channel) (Homo sapiens, UniProt Q14524); assay: Test Example 14: Nav test (patch clamp, HEK cells); assay type: cell-based; details: HEK cells expressing Nav 1.5 channel, whole cell patch clamp
T1 construct: expressed in transfected cells; host or cells: HEK cells
T1 sequence (Q14524 whole entry): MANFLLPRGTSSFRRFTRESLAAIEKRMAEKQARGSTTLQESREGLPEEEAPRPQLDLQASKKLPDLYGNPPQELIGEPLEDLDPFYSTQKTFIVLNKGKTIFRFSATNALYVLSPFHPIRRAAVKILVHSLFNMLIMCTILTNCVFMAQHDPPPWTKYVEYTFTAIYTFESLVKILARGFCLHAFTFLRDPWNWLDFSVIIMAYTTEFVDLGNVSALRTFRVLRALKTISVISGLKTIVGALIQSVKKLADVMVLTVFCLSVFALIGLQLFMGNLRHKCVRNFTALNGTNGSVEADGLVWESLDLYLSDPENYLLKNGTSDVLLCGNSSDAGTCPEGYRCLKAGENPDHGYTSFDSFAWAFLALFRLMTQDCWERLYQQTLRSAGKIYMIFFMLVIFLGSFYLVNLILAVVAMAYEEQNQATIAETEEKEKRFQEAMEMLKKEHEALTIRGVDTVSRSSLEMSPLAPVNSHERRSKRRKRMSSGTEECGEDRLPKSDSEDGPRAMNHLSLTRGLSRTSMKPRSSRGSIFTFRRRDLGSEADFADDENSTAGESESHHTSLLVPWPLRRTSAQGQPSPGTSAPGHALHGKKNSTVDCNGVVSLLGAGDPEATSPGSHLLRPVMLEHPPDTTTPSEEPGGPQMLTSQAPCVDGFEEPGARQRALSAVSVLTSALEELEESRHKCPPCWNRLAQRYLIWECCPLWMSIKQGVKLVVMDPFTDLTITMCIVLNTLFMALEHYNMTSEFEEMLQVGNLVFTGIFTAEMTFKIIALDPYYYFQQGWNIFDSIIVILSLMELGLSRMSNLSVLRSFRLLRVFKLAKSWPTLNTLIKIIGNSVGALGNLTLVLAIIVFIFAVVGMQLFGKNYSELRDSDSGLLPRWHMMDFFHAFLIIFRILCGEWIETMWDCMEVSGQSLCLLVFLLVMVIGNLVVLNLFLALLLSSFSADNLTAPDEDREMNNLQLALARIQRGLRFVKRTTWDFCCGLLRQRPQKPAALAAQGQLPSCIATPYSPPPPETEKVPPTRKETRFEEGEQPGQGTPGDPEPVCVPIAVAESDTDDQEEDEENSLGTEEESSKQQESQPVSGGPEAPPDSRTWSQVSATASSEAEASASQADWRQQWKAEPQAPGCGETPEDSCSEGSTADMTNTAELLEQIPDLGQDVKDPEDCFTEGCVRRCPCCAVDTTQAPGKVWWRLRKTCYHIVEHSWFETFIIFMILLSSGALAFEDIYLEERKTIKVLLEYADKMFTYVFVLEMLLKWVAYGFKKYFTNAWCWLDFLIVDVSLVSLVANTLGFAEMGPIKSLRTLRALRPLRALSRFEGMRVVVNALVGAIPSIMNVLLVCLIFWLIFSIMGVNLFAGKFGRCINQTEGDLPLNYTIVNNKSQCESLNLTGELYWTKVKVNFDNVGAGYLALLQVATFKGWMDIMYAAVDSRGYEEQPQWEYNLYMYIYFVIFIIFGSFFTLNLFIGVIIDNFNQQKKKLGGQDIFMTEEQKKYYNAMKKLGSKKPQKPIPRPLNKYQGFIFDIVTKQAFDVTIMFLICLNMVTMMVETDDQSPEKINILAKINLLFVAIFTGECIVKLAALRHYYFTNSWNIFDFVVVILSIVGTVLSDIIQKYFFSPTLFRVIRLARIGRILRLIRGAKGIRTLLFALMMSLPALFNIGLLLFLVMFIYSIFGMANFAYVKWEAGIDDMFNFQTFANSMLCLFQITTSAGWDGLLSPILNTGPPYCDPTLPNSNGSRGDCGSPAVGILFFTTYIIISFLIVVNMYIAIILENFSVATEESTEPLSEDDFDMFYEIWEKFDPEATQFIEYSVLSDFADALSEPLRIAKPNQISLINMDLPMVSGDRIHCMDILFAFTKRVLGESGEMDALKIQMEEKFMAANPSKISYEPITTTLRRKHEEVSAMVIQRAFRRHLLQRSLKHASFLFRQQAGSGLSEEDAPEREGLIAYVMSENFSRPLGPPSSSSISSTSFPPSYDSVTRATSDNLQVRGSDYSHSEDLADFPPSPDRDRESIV
Description: Using a fully automatic patch clamp system (QPatch: Sophion Bioscience A/S), by the whole cell patch clamp method, the cells were maintained at a membrane potential of −100 mV and the induced INa when a −10 mV depolarization stimulus was applied for 20 msec was recorded. […] From the INa obtained, using analysis software (QPatch: Sophion Bioscience A/S), the absolute value of the maximum peak current was measured, with reference to the current value at the maintained membrane potential.

HIV [7] = assay: Test Example 16: anti-HIV activity in the presence of human serum protein (MT-4 cells); assay type: cell-based; details: 100% extrapolation value, PS=4×(EC50 with 25% human serum protein/EC50 with no human serum protein)
Description: A stage dilution series of the test samples was created on a 96-well microplate (50 μL/well).
Aliquots of human serum protein solution (human serum protein concentration 50%) were dispensed in the amount of 100 μL/well to a 96-well microplate containing the test sample. This was then left to stand for 1 h at room temperature. Culture medium in the amount of 100 μL/well in each case was dispensed to a serum-free plate for control purposes. Aliquots of MT-4 cells in the amount of 3.0×10^5/well and HIV virus liquid in the amount of 3 μL/well were mixed for the necessary number of wells and reacted for 1 h at 37° C. After the reaction, the cell suspension was centrifuged and the supernatant discarded; aliquots of infected cells were distributed to culture medium in the amount of 50 μL/well and were dispensed in the amount of 50 μL/well in each case into the wells of a 96-well microplate containing test samples and human serum protein (human serum protein concentration: 25%). Mixing was performed using a plate mixer and culturing was performed for four days with a CO2 incubator. […] MTT(3-(4, 5-dimethylthiazol-2-yl)-2, 5-diphenyltetrazolium bromide) liquid in the amount of 30 μL was dispensed to each of the wells. The reaction was performed for 1 h in a CO2 incubator. 150 μL supernatant was removed to avoid aspirating cells from the wells. 150 μL of cell solution was added and thorough mixing was performed, using a plate mixer, until all the cells were dissolved. The optical absorbance on the mixed plate was measured at two wavelengths, namely, 560 nm/690 nm, using a microplate reader.
Next, the potency shift (PS) was calculated, using the following formula. The PS is the value of the human serum protein concentration, extrapolated to 100%.

[8] = pooled human liver microsomes, 30 min at 37° C., NADPH, compound concentration 0.5 μmol/L
[9] = combination with compound (B) Compound C (CAI)
[10] = combination with compound (B) Darunavin (PI)
[11] = combination with compound (B) Darunavir (PI)
[12] = combination with compound (B) GS-6207 (CAI)
[13] = combination with compound (B) GSK2838232 (maturation inhibitor)
[14] = combination with compound (B) Lilpiperine (polymerase inhibitor)
[15] = combination with compound (B) Ramipzin (3TC) (polymerase inhibitor)
[16] = combination with compound (B) Rilpivirine (polymerase inhibitor)

Row | Structure (SMILES) | Remaining percentage [1, 8] | FC in respect of mutant strain 2 (E92Q/E138T/G140S/Q148H) [2] | EC50 (HIV [3]) | D value (dosewise additivity value) (HIV [4]; [9]) | effect of combined use (HIV [4]; [9]) | D value (dosewise additivity value) (HIV [4]; [10]) | effect of combined use (HIV [4]; [11]) | D value (dosewise additivity value) (HIV [4]; [12]) | effect of combined use (HIV [4]; [12]) | D value (dosewise additivity value) (HIV [4]; [13]) | effect of combined use (HIV [4]; [13]) | effect of combined use (HIV [4]; [14]) | D value (dosewise additivity value) (HIV [4]; [15]) | effect of combined use (HIV [4]; [15]) | D value (dosewise additivity value) (HIV [4]; [16]) | FC in respect of mutant strain 1 (E138K/G140S/Q148H/N155H) [5] | ratio of maximum peak current (INa) on application of compound to that on application of medium [6] | potency shift (PS) in the presence of human serum protein (HIV [7]) | Remaining percentage ([1]; human, microsomes, 0.5 h, 0.5 μmol/L, pH 7.4)
1 | CCN1C(=O)c2c(O)c(=O)c(-c3nnc(Cc4ccc(F)cc4F)s3)cn2N2[C@H](COC)CC[C@@H]12 [II-110] | 96.5% | 11 | 0.13 nM | 0.075 | Additive (−0.1 to −0.1: additive synergetic effect) | −0.058 | Additive (−0.1 to −0.1: additive synergetic effect) | 0.025 | Additive (−0.1 to −0.1: additive synergetic effect) | −0.048 | Additive (−0.1 to −0.1: additive synergetic effect) | Additive (−0.1 to −0.1: additive synergetic effect) | −0.145 | Weak synergy (−0.2 to −0.1: weak synergetic effect) | −0.073 | 8.2 | 89.3% |  | 
2 | CCN1C(=O)c2c(O)c(=O)c(C(=O)NCc3ccc(F)cc3F)cn2N2C[C@@H](C)C[C@@H]12 [II-045] | 96% | 21 |  |  |  |  |  |  |  |  |  |  |  |  |  | 19 |  | 236 | 
3 | CN1C(=O)c2c(O)c(=O)c(-c3nnc(Cc4ccc(F)cc4F)s3)cn2N2CCCC[C@@H]12 [II-098] | 109% | 12 | 0.62 nM |  |  |  |  |  |  |  |  |  |  |  |  | 8.8 | 96.7% |  | 
4 | CCN1C(=O)c2c(O)c(=O)c(-c3nnc(Cc4ccc(F)cc4)s3)cn2N2[C@H](COC)CC[C@@H]12 [II-118] | 92.4% | 31 | 0.96 nM |  |  |  |  |  |  |  |  |  |  |  |  | 20 | 86.2% |  | 
5 | CCN1C(=O)c2c(O)c(=O)c(-c3nnc(Cc4c(F)cc(F)cc4F)s3)cn2N2CCOC[C@@H]12 [II-106] | 95.3% | 20 | 0.52 nM |  |  |  |  |  |  |  |  |  |  |  |  | 15 | 109% |  | 
6 | CCN1C(=O)c2c(O)c(=O)c(-c3nnc(Cc4cc(F)c(F)cc4F)s3)cn2N2CCCC[C@@H]12 [Compound I-022] | 72.2% | 46 | 4.8 nM |  |  |  |  |  |  |  |  |  |  |  |  | 23 | 97.1% |  | 
7 | CCN1C(=O)c2c(O)c(=O)c(C(=O)NCc3cccc(Cl)c3F)cn2N2[C@H]3COCC3C[C@@H]12 (stereo partly drawn) [II-052] |  | 16 | 0.27 nM | 0.038 | Additive (−0.1 to −0.1: additive synergetic effect) | −0.076 | Additive (−0.1 to −0.1: additive synergetic effect) | −0.003 | Additive (−0.1 to −0.1: additive synergetic effect) | −0.009 | Additive (−0.1 to −0.1: additive synergetic effect) | Additive (−0.1 to −0.1: additive synergetic effect) | −0.156 | Weak synergy (−0.2 to −0.1: weak synergetic effect) | −0.020 | 22 |  |  | 61.6%
